Results from patent US10137174B2, “Methods and materials for treating cancers that express reduced levels of wild-type p53 polypeptides” (Mayo Foundation for Medical Education and Research, priority 2009, dated 2018).

How the values were obtained:
[1] = tested on: USP10 phosphorylation (PIKKs/ATM); test: USP10 phosphorylation at SQ/TQ motifs after DNA damage (FLAG-USP10 IP, pSQ/TQ blot) in HCT116 cells; type: cell-based; conditions: Ku55933, 2 hours pretreatment; 10 Gy radiation; HCT116 cells with FLAG-USP10
Procedure: Forty-eight hours later, the cells were left untreated or treated with 10 Gy radiation, 40 J/m^2 UV, or 20 mM etoposide. After an additional 1 hour, the cells were harvested. Cell lysates were subjected to immunoprecipitation with anti-FLAG antibody and immunobloted with phospho-SQ/TQ (pSQ/TQ) antibody. […] After 2 hours of incubation, cells were left untreated or treated with 10 Gy radiation. The phosphorylation of USP10 was examined as in (FIG. 6C). […] Cells were left untreated or treated with 10 Gy radiation. USP10 phosphorylation was examined by pSQ/TQ antibody.
Cells were lysed with NETN buffer (20 mM Tris-HCl, pH 8.0, 100 mM NaCl, 1 mM EDTA, 0.5% Nonidet P-40) containing 50 mM β-glycerophosphate, 10 mM NaF, and 1 mg/mL each of pepstatin A, and aprotinin. Whole cell lysates obtained by centrifugation were incubated with 2 μg of antibody and protein A or protein G Sepharose beads (Amersham Biosciences) for 2 hours at 4° C. The immunocomplexes were then washed with NETN buffer three times and separated by SDS-PAGE. Immunoblotting was performed following standard procedures.

USP10 polypeptide = molecular target: T1, USP10 polypeptide (Homo sapiens, UniProt Q14694); test: Ub-AMC deubiquitination assay with USP10 polypeptide; type: biochemical; conditions: USP10 4 μg/mL, Ub-AMC 300 nmol/L, vs DMSO, p<0.01
T1 construct: His; made in house; host or cells: E. coli BL21 (pET-28a vector)
Procedure: FIG. 17A is a concentration curve graph plotting the level of deubiquitination of Ub-AMC observed following incubation with the indicated amounts of USP10 polypeptide (μg). FIG. 17B is a graph plotting the level of deubiquitination of Ub-AMC in the presence (right) or absence (left) of 4 μg/mL of USP10 polypeptides and the indicated compound.
Briefly, the amount of Ub-AMC deubiquitination in vitro increased as the concentration of USP10 polypeptides increased (FIG. 17A).
N-ethylmaleimide (1 mM), Z-phe-ala fluoromethyl ketone ([…] dihydrochloride (10 μg/mL), E-64 (10 μM), chymostatia ([…] fluoride (40 μM), E-64d (0.5 μM), and cystatin (36 μg/mL) were tested for the ability to inhibit USP10 polypeptide activity using USP10 polypeptide (4 μg/mL) and Ub-AMC (300 nmol/L). Briefly, both enzyme (USP10 polypeptide) and substrate (Ub-AMC) were freshly prepared in USP10 reaction buffer (50 mmol/L Tris-HCl (pH 7.6), 0.5 mmol/L EDTA, 5 mmol/L DTT, 0.01% Triton X-100, and 0.05 mg/mL serum albumin) for each run. Each well (except substrate control wells) in a typical assay contained 4 μg/mL of USP10, the compound, or 2% DMSO. The wells were incubated for 30 minutes to attain equilibrium, and the enzymatic reaction was then initiated by adding the substrate (300 nmol/L of Ub-AMC). […]

T1 sequence (Q14694 whole entry): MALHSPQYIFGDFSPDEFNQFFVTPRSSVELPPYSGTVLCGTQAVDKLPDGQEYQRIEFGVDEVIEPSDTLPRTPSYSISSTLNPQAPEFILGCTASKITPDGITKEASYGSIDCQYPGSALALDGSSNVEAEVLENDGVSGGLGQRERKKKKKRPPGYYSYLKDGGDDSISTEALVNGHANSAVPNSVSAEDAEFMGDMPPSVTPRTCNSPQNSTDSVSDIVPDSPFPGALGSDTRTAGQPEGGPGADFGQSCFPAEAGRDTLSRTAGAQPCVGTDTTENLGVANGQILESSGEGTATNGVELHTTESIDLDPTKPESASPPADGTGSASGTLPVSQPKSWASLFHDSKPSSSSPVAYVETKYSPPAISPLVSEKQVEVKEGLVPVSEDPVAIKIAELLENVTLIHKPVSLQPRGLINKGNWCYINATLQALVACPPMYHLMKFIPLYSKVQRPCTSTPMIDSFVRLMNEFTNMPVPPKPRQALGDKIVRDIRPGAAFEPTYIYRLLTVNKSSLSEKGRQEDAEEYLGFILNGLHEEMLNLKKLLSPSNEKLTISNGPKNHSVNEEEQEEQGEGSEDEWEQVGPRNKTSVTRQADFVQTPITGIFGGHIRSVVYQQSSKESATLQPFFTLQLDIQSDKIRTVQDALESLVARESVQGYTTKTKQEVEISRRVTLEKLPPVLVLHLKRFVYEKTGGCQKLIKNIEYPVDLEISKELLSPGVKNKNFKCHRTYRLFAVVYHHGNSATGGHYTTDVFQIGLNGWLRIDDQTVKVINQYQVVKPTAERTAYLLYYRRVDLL

O=c1cc(-c2cccc3c2Sc2ccccc2S3)oc(N2CCOCC2)c1 [KU55933]
USP10 phosphorylation after IR [1]: inhibited

CCN1C(=O)C=CC1=O [N-ethylmaleimide]
deubiquitinating activity of USP10 polypeptides (USP10 polypeptide; compound 1 mM): significantly inhibited

C[C@H](NC(=O)[C@H](Cc1ccccc1)NC(=O)OCc1ccccc1)C(=O)CF [Z-phe-ala fluoromethyl ketone]
deubiquitinating activity of USP10 polypeptides (USP10 polypeptide; compound 80 μM): significantly inhibited
